SMILES strings stand for the structures.

The target in experiment [1] is Phosphorylase b kinase gamma catalytic chain, skeletal muscle/heart isoform (Homo sapiens) (UniProt Q16816). The experiment is described as follows: Selectivity interaction (Kinase panel (Z-LYTE Assay)) EUB0001632a PHKG1. As to conditions: at 10 µM.
In experiment [2] the target is Tyrosine-protein kinase Yes (Homo sapiens) (UniProt P07947). The experiment is described as follows: Selectivity interaction (Ambit KINOMEscan and KiNATiv profiling in Jurkat cells) EUB0000090b YES1. The class given is cell-based. The note with it: at 1 µM.
For experiment [3], the target named is NT-3 growth factor receptor (Homo sapiens, UniProt Q16288). As to the kind of experiment: Selectivity interaction (Ambit KINOMEscan and KiNATiv profiling in Jurkat cells) EUB0000090b NTRK3. It is filed as cell-based. As to conditions: at 1 µM.
The target of experiment [4] is T1, Phosphatidylinositol 5-phosphate 4-kinase type-2 beta (Homo sapiens) (UniProt P78356).
T1 sequence (whole entry): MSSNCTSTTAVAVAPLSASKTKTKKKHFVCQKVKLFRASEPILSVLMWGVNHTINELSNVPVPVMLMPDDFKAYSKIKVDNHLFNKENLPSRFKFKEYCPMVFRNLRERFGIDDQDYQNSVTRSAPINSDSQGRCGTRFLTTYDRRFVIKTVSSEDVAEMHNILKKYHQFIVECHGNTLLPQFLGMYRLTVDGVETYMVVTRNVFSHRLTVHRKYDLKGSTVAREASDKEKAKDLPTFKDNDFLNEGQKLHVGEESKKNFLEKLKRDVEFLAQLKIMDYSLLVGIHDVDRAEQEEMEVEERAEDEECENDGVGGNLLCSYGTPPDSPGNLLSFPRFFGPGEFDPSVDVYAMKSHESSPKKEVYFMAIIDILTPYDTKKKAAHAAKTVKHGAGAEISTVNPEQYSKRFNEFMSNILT
As to the kind of experiment: Selectivity interaction (Ambit KINOMEscan and KiNATiv profiling in Jurkat cells) EUB0000090b PIP4K2B. The note with it: at 1 µM. It is filed as cell-based.

The target in experiment [5] is Ribosomal protein S6 kinase alpha-6 (Homo sapiens, UniProt Q9UK32). The experiment is described as follows: Selectivity interaction (KinomeScan (DiscoverX)) EUB0000607a RPS6KA6. As to conditions: at 10 µM.
The target in experiment [6] is T2, Cytoplasmic tyrosine-protein kinase BMX (Homo sapiens) (UniProt P51813).
T2 sequence (whole entry): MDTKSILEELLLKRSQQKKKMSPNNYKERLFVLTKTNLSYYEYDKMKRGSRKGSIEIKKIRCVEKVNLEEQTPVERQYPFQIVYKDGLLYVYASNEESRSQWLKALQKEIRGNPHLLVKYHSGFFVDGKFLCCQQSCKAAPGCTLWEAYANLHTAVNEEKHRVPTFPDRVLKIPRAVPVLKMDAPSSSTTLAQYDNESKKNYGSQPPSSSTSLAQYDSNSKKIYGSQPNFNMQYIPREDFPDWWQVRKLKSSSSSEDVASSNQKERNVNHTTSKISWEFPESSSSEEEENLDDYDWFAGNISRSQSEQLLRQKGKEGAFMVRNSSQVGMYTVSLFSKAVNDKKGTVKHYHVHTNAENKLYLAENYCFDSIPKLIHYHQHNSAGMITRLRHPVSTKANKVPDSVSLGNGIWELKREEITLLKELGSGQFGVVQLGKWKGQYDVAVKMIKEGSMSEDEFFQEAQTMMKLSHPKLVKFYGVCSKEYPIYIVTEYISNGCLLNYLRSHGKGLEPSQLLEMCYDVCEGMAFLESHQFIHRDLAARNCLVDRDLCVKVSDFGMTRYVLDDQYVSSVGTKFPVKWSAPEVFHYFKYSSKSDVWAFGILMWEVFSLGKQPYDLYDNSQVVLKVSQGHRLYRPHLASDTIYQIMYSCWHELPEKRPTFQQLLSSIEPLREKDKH
As to the kind of experiment: Selectivity interaction (KinomeScan (DiscoverX)) EUB0000607a BMX. The note with it: at 10 µM.

For experiment [7], the target named is Proto-oncogene tyrosine-protein kinase Src (Homo sapiens, UniProt P12931). As to the kind of experiment: Selectivity interaction (KinomeScan (DiscoverX)) EUB0000607a SRC. As to conditions: at 10 µM.
For experiment [8], the target named is Phosphatidylinositol 4-phosphate 5-kinase type-1 alpha (Homo sapiens) (UniProt Q99755). As to conditions: at 10 µM.
Experiment [9] addresses Tyrosine-protein kinase FRK (Homo sapiens) (UniProt P42685). As to the kind of experiment: Selectivity interaction (KinomeScan (DiscoverX)) EUB0000666a FRK. As to conditions: at 10 µM.
Experiment [10] addresses T3, Mitogen-activated protein kinase 13 (Homo sapiens) (UniProt O15264).
T3 sequence (whole entry): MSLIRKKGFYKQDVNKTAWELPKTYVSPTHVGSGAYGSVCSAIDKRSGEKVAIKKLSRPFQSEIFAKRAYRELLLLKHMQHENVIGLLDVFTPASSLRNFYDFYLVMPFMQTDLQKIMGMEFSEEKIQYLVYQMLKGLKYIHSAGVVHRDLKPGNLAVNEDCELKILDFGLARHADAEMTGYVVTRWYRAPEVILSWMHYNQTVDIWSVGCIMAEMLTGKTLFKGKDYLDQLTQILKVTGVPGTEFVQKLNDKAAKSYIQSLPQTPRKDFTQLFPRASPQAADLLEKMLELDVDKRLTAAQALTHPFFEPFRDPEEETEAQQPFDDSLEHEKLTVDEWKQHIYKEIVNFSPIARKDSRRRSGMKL
The experiment is described as follows: Selectivity interaction (KinomeScan (DiscoverX)) EUB0000229b MAPK13. The note with it: at 10 µM.

Experiment [11] concerns the target Protein kinase C eta type (Homo sapiens) (UniProt P24723). The experiment is described as follows: Selectivity interaction (KinomeScan (DiscoverX)) EUB0001619a PRKCH. As to conditions: at 1 µM.
Experiment [12] has as its target Cyclin-dependent kinase 5 (Homo sapiens, UniProt Q00535). As to the kind of experiment: Selectivity interaction (ActivX KiNativ screen (ex vivo kinase selectivity in human PBMCs)) EUB0001619a CDK5. The note with it: PBMC, at 1 µM. It is filed as cell-based.
Experiment [13] addresses Calcium/calmodulin-dependent protein kinase type II subunit delta (Homo sapiens) (UniProt Q13557). As to the kind of experiment: Selectivity interaction (ActivX KiNativ screen (kinase selectivity in THP-1 cell lysates)) EUB0000639a CAMK2D. The class given is subcellular. The note with it: lysate, at 5 µM.
The target of experiment [14] is MAP kinase-activated protein kinase 3 (Homo sapiens) (UniProt Q16644). The experiment is described as follows: Selectivity interaction (ProQinase) EUB0000171b MAPKAPK3.
The target in experiment [15] is 5-hydroxytryptamine receptor 1B (Homo sapiens) (UniProt P28222). As to the kind of experiment: Selectivity interaction (Panel of kinases, GPCRs, ion channels and transporters (enzymatic assay)) EUB0000223bCl HTR1B.
The target of experiment [16] is Myosin light chain kinase 2, skeletal/cardiac muscle (Homo sapiens) (UniProt Q9H1R3). The experiment is described as follows: Selectivity interaction (KinomeScan (DiscoverX)) EUB0000595a MYLK2. The note with it: at 10 µM.
Experiment [17] deals with Calcium/calmodulin-dependent protein kinase kinase 1 (Homo sapiens) (UniProt Q8N5S9). The experiment is described as follows: Selectivity interaction (KinomeScan (DiscoverX)) EUB0000595a CAMKK1. The note with it: at 10 µM.
Chain of Calcium/calmodulin-dependent protein kinase kinase 1 (Homo sapiens) (Q8N5S9 whole entry, looked up): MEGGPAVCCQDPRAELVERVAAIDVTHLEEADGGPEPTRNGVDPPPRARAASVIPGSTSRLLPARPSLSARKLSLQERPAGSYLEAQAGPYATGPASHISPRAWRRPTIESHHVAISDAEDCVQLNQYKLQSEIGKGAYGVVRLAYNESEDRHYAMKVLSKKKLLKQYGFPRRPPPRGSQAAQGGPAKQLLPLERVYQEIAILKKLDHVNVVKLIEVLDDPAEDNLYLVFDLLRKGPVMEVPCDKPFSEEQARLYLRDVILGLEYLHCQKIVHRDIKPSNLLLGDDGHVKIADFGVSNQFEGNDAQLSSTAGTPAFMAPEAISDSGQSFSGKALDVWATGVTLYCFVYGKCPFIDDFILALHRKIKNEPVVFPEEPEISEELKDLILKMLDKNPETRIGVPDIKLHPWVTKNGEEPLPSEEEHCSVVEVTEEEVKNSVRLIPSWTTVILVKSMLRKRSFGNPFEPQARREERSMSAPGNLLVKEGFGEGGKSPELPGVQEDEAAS

Chain of MAP kinase-activated protein kinase 3 (Homo sapiens) (Q16644 whole entry, looked up): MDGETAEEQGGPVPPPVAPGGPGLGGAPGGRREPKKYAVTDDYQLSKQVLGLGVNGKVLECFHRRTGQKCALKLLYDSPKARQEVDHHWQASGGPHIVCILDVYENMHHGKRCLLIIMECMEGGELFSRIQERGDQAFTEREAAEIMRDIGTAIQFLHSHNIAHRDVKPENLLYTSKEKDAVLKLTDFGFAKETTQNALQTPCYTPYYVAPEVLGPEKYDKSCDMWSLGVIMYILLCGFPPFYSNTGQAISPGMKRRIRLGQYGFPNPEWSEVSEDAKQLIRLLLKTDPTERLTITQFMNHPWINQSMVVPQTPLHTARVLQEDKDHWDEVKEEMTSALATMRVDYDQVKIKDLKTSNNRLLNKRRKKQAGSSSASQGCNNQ
Chain of Phosphorylase b kinase gamma catalytic chain, skeletal muscle/heart isoform (Homo sapiens) (Q16816 whole entry, looked up, canonical isoform): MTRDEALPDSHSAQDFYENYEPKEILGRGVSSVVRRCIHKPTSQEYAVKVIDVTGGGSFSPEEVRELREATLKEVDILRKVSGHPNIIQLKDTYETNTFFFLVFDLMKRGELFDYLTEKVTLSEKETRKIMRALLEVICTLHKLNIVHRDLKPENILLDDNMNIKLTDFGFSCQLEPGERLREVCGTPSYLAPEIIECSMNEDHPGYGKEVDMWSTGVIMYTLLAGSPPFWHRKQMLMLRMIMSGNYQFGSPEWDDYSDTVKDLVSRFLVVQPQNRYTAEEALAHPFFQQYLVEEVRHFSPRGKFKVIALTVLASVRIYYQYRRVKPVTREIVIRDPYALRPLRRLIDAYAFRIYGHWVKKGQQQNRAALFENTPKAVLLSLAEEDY
Chain of Ribosomal protein S6 kinase alpha-6 (Q9UK32 whole entry): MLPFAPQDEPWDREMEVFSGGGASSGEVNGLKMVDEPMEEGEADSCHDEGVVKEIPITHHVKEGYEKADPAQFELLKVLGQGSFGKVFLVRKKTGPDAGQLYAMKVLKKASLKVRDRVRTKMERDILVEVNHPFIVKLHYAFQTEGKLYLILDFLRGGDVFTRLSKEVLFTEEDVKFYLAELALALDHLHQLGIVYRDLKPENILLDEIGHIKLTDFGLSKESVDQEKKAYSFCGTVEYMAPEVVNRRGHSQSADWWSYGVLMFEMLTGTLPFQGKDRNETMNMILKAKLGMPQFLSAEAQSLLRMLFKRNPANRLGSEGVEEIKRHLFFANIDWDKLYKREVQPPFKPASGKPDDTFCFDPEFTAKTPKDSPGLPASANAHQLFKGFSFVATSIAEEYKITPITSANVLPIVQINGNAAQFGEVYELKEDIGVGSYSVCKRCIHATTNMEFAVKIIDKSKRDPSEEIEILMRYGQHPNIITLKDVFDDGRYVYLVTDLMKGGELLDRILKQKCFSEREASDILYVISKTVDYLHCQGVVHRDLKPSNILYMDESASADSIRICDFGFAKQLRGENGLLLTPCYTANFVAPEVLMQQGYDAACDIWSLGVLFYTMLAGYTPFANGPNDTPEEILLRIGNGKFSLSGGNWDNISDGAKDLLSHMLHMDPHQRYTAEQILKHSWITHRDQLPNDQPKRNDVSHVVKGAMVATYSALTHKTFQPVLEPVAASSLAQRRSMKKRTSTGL
Chain of Tyrosine-protein kinase FRK (Homo sapiens) (P42685 whole entry): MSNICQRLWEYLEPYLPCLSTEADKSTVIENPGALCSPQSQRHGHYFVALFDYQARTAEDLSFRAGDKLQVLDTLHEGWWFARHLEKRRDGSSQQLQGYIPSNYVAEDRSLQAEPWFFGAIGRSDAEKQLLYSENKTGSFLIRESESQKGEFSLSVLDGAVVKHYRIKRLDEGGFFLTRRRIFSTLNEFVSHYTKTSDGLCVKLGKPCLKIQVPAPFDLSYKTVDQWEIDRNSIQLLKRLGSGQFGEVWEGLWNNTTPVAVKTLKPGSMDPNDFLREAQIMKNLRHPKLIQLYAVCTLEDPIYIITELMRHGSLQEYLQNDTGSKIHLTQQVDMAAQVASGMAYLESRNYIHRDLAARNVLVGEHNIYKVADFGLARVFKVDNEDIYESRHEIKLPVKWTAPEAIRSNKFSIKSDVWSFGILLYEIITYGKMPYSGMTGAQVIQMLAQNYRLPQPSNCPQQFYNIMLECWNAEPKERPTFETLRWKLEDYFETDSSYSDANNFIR
Chain of Phosphatidylinositol 4-phosphate 5-kinase type-1 alpha (Homo sapiens) (Q99755 whole entry): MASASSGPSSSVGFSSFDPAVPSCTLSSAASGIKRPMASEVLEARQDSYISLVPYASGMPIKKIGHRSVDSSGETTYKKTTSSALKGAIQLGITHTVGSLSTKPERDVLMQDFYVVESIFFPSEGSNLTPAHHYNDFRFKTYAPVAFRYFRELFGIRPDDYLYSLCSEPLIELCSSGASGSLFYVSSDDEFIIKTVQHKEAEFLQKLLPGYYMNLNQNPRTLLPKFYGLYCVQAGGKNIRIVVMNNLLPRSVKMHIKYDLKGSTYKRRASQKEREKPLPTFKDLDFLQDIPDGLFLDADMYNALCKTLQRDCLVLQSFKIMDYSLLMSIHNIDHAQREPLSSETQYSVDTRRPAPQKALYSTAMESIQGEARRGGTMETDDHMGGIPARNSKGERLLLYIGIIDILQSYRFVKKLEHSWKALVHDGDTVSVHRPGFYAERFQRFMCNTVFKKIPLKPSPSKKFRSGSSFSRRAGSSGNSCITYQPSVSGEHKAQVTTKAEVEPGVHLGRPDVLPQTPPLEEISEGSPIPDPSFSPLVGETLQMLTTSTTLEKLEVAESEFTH
Chain of Cyclin-dependent kinase 5 (Q00535 whole entry, looked up): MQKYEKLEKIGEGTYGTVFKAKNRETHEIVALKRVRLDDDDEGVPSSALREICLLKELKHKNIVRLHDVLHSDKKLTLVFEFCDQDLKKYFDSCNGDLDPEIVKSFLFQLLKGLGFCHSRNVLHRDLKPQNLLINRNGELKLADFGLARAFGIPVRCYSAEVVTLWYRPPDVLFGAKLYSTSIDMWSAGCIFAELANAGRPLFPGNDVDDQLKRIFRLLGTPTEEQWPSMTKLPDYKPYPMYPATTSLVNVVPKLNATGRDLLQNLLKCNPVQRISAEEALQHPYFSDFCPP
Chain of Proto-oncogene tyrosine-protein kinase Src (P12931 2-536 limits assumed): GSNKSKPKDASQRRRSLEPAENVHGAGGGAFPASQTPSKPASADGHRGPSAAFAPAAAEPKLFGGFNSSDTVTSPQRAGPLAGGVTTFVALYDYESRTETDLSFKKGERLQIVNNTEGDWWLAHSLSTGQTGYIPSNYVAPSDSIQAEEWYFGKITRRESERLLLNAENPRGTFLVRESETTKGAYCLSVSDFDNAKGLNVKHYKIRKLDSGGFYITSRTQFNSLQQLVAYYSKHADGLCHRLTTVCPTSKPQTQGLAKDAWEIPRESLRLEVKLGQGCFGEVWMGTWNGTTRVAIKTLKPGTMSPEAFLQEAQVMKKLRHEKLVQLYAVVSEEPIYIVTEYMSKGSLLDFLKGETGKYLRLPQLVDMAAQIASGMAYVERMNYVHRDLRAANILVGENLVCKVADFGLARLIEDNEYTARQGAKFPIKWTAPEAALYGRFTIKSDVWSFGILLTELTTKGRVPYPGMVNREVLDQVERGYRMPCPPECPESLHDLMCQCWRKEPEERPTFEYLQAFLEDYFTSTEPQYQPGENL
Chain of 5-hydroxytryptamine receptor 1B (Homo sapiens) (P28222 whole entry): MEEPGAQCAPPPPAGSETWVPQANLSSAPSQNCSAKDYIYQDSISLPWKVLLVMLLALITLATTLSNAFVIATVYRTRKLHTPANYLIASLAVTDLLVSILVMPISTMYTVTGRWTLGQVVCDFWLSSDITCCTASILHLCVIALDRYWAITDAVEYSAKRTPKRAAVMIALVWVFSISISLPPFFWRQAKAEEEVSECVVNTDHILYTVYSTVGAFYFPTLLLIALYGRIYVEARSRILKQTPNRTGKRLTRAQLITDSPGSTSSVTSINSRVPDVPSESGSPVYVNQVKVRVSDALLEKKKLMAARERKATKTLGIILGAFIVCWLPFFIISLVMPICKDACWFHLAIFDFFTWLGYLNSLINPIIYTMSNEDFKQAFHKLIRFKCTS
Chain of Protein kinase C eta type (Homo sapiens) (P24723 whole entry): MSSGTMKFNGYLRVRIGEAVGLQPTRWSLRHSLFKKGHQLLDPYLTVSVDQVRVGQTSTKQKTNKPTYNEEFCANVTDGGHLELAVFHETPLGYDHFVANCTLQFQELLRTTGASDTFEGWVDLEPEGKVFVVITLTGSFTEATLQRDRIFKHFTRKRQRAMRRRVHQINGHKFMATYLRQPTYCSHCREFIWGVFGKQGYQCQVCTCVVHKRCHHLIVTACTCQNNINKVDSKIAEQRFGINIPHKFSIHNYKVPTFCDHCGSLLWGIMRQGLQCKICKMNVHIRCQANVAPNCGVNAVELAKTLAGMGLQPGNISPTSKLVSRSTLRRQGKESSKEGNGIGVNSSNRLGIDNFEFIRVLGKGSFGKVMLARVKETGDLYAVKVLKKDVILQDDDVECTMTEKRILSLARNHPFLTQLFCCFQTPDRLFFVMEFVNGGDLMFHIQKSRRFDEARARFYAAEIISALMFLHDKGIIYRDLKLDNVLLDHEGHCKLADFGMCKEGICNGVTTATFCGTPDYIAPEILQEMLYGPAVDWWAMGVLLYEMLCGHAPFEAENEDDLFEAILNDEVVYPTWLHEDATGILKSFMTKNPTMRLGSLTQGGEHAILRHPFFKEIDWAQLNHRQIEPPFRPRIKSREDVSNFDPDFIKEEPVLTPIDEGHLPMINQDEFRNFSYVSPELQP

For the compound `Cn1cc(-n2cnc3c(NCc4nc5cc(Cl)c(Cl)cc5[nH]4)nc(N4CCOCC4)nc32)cn1`, in [1], the % of control was -6.26%.
Regarding `CN(C)C/C=C/C(=O)Nc1ccc(C(=O)N2CCCC(Nc3ncc(Cl)c(-c4c[nH]c5ccccc45)n3)C2)cc1` (stereo not drawn), the % of control was determined as 94% in experiment [2], 81% in [3] and 83% in [4].
Turning to `CNC(=O)Nc1ccc(-c2nc(N3CC4CCC(C3)O4)c3cnn(C4CCC5(CC4)OCCO5)c3n2)cc1`, the % of control in experiment [5] stood at 84%; in experiment [6] it was 83%; in experiment [7] it was 75%.
Consider `Cc1cc([C@@H](C)Nc2ccccc2C(=O)O)c2nc(N3CCOCC3)cc(=O)n2c1` [AZD-6482], for which, in experiment [8], the % of control turned out to be 100%.
As for `O=C(NOC[C@H](O)CO)c1ccc(F)c(F)c1Nc1ccc(I)cc1F`, the % of control in [9] turned out to be 60%.
In experiment [10], `COc1cc(N(C)c2ccnc3ccc(C(F)(F)F)cc23)cc(OC)c1OC` yielded a % binding of 78%.
In the case of `N#Cc1cccc(-c2c[nH]c3ncnc(N4CCOCC4)c23)c1`, in experiment [11], the % of control came to 41%. Further, the % of inhibition in [12] was 0%.
For `CC[C@@H]1[C@H](F)C(=O)N[C@@H]1COc1nccc2cc(C(N)=O)c(OC)cc12` [ZIMLOVISERTIB], the % of inhibition in [13] was found to be 56.2%.
On to `C=CC(=O)Nc1cccc(C(=O)Nc2ccc(Nc3cc(-c4[nH]c(SC)nc4C)ccn3)cc2)c1`, for which the % of control in experiment [14] (at 1 µM) turned out to be 100%; in experiment [14] (at 5 µM), 65%.
`COc1cc(C(=O)N2CC[C@@H](O)[C@@H](N)C2)cc2nc(-c3cc4ccccc4n3CC3CC3)n(C)c12` gave a pXC50 in experiment [15] below 4.5 M.
Regarding `COCC(=O)NC/C=C/c1ccc2ncnc(Nc3ccc(Oc4ccc(C)nc4)c(C)c3)c2c1` [CP-724714], the % of control was 100% in experiment [16] and 96% in [17].

(Values after ChEMBL document CHEMBL5465560, “Selectivity Literature for EUbOPEN Chemogenomic Library” (2024).)
